Experimental data published in US20220057378A1, “MICROBIAL MICROFLUIDIC BIOSENSOR” (priority 2015, published 2022).

Legend:
[1] = test system: E. coli MG1655/As1; experiment: on-chip time-lapse induction of promoter construct (GFP, gill chip); type: cell-based
Procedure: (§5) For on-chip induction experiments, strains were loaded into the device and grown in M9 minimal medium with 0.4% glucose and 50 μg/ml spectinomycin (for plasmid maintenance) for 2 days in the absence of toxin. Cells were imaged under 4× brightfield and GFP fluorescence filters on an Olympus IX-81 microscope every 2 min for 6 h under these non-inducing conditions to generate a fluorescence baseline. The toxin was then introduced to induce GFP expression and the cells were imaged every 2 min for 6 h.
(§6) To determine the response to toxin induction, the raw fluorescence images before and after induction were compared. The image stacks were analyzed using a custom ImageJ script to measure the average GFP signal over time for each cell trap. Any linear trend in the uninduced fluorescence data due to cell growth was subtracted from the data. In this manner, the dynamic signal-to-noise ratio (SNR) was calculated as: (current fluorescence−mean uninduced fluorescence)/(standard deviation of uninduced fluorescence).
(§7) This microfluidic platform was then used to measure the response of several toxin responsive promoter constructs identified from the literature and synthesized by Transcriptic. […] Note that SNR values greater than 2 indicate a significant response.

[2] = test system: pRS18; experiment: SVM classification of GFP sensor responses (toxin / no toxin); type: cell-based, E. coli; conditions: from classification accuracy and ROC curves; plasmid pRS18
Excerpt: (§1) Computational models to determine the threshold of detection for specific sensors based on models of experimental GFP responses. We used machine learning techniques to determine the relationships between the GFP output signal and the presence of a toxin. We have created a database containing the collected sensor response data. We have quantified the GFP threshold of detection for each sensor construct. We have constructed Receiver Operating Characteristic (ROC) curves for each sensor to achieve robust sensing. We constructed machine learning models capable of inferring the relationships between the GFP sensor responses and the presence or absence of a toxin at a given concentration. […] The optimal meta-parameters of the SVM classifier were determined by applying a 5-crossvalidation during the training phase (2). In order to have a reliable estimate of the performance of the model when deployed in real environments, we measured its performance over a set of samples (test patterns) not seen during the training phase. The SVM's performance was determined by the percentage of test samples correctly labeled as toxin/no toxin (classification accuracy). […]
(§2) In order to have a reliable estimate of the performance of the model when deployed in real environments, we measured its performance over a set of samples (test patterns) not seen during the training phase. […]

[3] = test system: pZA47a; experiment: as above; type: cell-based, E. coli; conditions: from classification accuracy and ROC curves
Excerpt: as §1, §2

[4] = test system: E. coli MG1655/As7; experiment: 8-strain chip induction (fluorescence induction ratio); type: cell-based; conditions: toxin at t=0, pure water at t=2 hours; arsenic 0.2 μM
Excerpt: (§3) An overview of the sensor can be seen in FIG. 39. In order to acquire the large amount of data required to successfully train the classifier, five replicates of the fully self-contained device prototype were built, in which the microfluidic devices are mounted and imaged using custom-designed optics as shown in some embodiments herein (Milestone 6.9). The majority of the data for this project was acquired using a novel microfluidic device capable of housing eight different bacterial strains that receive media from a shared source. […] The design was expanded to house 18 strains and we have begun taking data with this new chip to provide larger datasets to the classifier. A detailed CAD drawing of this device can be seen in FIG. 56. The 18 cell trapping regions are vacuum-loaded from 18 downstream fluidic ports. Long, serpentine channels upstream of the trapping regions serve as fluidic buffer zones to prevent the cross-contamination of strains while loading. The toxin concentration is controlled dynamically by a peristaltic pump that mixes a water/toxin combination (representing the source water stream) with a concentrated medium stock.
(§4) In each panel, the time series data for the “on-target” responding strain is plotted in bold.

[5] = test system: As7 with luxCDABE operon; experiment: plate reader induction of arsenic sensor, Lux reporter; type: cell-based; conditions: Tecan plate reader
Procedure: Luminescent reporters. […] In FIG. 8, we compare these reporters driven by an arsenic-responsive promoter, where the induction response was measured side-by-side using a Tecan plate reader.
For comparison, the arsenic concentration used for testing the GFP construct in a microfluidic device was 130 nM, or 0.13 μM. Thus, replacing GFP with Lux promises to greatly increase the sensitivity of the biosensor.
The arsenic sensor construct As7 was modified to replace the gfp gene with the luxCDABE operon, and relative induction (fluorescence or luminescence) of the two constructs was tested side-by-side using a Tecan Infinite M200 Pro plate reader (see FIG. 38). […] In contrast, the GFP construct was sensitive to arsenic only above a concentration of 26 nM. For comparison, we were able to detect an arsenic concentration of 130 nM using the GFP construct in a microfluidic device. Thus, replacing GFP with Lux promises to greatly increase the sensitivity of the biosensor.

[6] = test system: E. coli MG1655/Co7; experiment: 8-strain chip induction (fluorescence induction ratio); type: cell-based; conditions: toxin at t=0, pure water at t=2 hours; chromium(VI) 0.5 μM
Excerpt: as §3, §4

[7] = test system: E. coli MG1655/Cr11; experiment: as above; type: cell-based; conditions: toxin at t=0, pure water at t=2 hours; chromium(VI) 0.5 μM
Excerpt: as §3, §4

[8] = test system: E. coli MG1655/Cu1; experiment: on-chip time-lapse induction of promoter construct (GFP, gill chip); type: cell-based
Procedure: as §5, §6, §7

SMILES: [As] [Arsenic]
- SNR after 6 h ([1]; 0.13 μM arsenic, 6 h induction, SNR > 2 = significant response): 20
- Concentration Sensed in Microfluidic Device ([1]; arsR/parsR from E. coli plasmid, native RBS): 0.13 µM
- threshold of detection [2]: 0.2 µM
- threshold of detection [3]: 0.1 µM
- GFP response of strain As7 [4]: sensitively responding
- arsenic concentration detected, Lux construct [5]: 0.2 nM

SMILES: [Cr+6] [Chromium(VI)]
- GFP response of strain Co7 [6]: responding
- GFP response of strain Cr11 [7]: responding

SMILES: [Cu] [Copper]
- SNR after 6 h ([8]; 25 μM copper, 6 h induction, SNR > 2 = significant response): 65
- Concentration Sensed in Microfluidic Device ([8]; cueR/pcopA from E. coli genome, native RBS): 25 µM
